Experimental data from patent US20090061024A1, “COMPOSITIONS AND METHODS EMPLOYING NMDA ANTAGONISTS FOR ACHIEVING AN ANESTHETIC-SPARING EFFECT” (Wyeth, priority 2007, published 2009).
Like-named read-outs stand apart in the source and are kept apart here.

What was measured:
[1] = doses typically used clinically; cited from earlier work
[2] = Anesthetic-sparing effect of perzinfotel with isoflurane (summary statements); format: in vivo, dogs; details: in combination with anesthetic (isoflurane); doses without reduced cardiopulmonary function
[3] = system: rats trained to distinguish between PCP and saline; details: cited from earlier work
[4] = doses needed to relieve hyperalgesia in preclinical pain models; cited from earlier work
[5] = system: cingulate and retrosplenial cortices; details: mice and rats, cited from earlier work

SMILES: CNC1(c2ccccc2Cl)CCCCC1=O (centres unmarked) [ketamine]
- anesthetic-sparing effects [1]: 10-20%

SMILES: O=c1c2c(c1=O)N(CCP(=O)(O)O)CCCN2 [Perzinfotel, [2-(8,9-dioxo-2,6-diazabicyclo[5.2.0]non-1-(7)-en-2-yl)ethyl]phosphonic acid]
- anesthetic-sparing effects [2]: up to 60%
- substitution for PCP (discriminative stimulus effects) [3]: did not substitute
- ataxia or sedation [4]: did not produce ataxia or sedation

SMILES: O=C(O)[C@H]1C[C@@H](CP(=O)(O)O)CCN1 (relative stereo) [CGS-19755, cis-4-phosphonomethyl-2-piperidine carboxylic acid]
- vacuoles in some layers of the cingulate and retrosplenial cortices ([5]; behaviorally effective doses): transient, reversible induction of vacuoles
- effectiveness:vacuolization ratio [5]: 1

SMILES: CC12CC3CC(C)(C1)CC(N)(C3)C2 [memantine]
- substitution for PCP (discriminative stimulus effects) [3]: substitute

SMILES: C[C@]12N[C@H](Cc3ccccc31)c1ccccc12 [dizocilpine]
- substitution for PCP (discriminative stimulus effects) [3]: substitute
